Results from patent publication US20030139433A1, “Method for the treatment of overactive bladder” (priority 2000, published 2003).
pIC50, pKi: −log10 of the molar value. Where “and” joins values, the source holds several entries; their conditions need not be identical. Equal values may be shown once.

Key:
overactive bladder = conditions: OAB patients; cited from earlier work
[1] = target: T1, NK2 receptor of rabbit pulmonary artery (Oryctolagus cuniculus, UniProt P79218); experiment: Inhibition of NK2 receptor-mediated contraction of rabbit pulmonary artery (agonist BANK); conditions: endothelium removed, read-out: -log molar KB (converted)
T1 construct: The left and right branches of the pulmonary artery were obtained from each animal; from tissue; host or cells: rabbit pulmonary artery rings, endothelium removed
T1 sequence (P79218 1-384): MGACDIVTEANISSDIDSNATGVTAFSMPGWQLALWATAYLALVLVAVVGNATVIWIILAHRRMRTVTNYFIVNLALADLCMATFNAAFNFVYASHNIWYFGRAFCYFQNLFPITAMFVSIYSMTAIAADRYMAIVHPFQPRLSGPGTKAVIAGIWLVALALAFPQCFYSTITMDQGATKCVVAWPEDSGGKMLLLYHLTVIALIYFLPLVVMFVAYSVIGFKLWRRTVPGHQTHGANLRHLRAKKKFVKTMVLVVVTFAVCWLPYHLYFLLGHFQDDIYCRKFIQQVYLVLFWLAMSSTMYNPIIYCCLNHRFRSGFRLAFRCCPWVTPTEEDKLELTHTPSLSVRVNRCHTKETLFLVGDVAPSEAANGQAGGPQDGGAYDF
Procedure: Inhibition of NK2 Receptor-Mediated Contraction of Rabbit Pulmonary Artery:
Male New Zealand white rabbits were administered a lethal injection of Nembutal, (60 mg/kg) into a cannulated ear vein. Heparin, 0.0025 mL/kg of a 1000 U/ml solution, was injected into the ear vein prior to Nembutal in order to decrease blood coagulation. The left and right branches of the pulmonary artery were obtained from each animal. The segments, with or without endothelium, were suspended as rings in water-jacketed tissue baths maintained at 37° C. containing physiological salt solution of the following composition (mM): NaCl (119.0); KCl (4.6); CaCl2 (1.8); MgCl2 (0.5); NaH2PO4 (1.0); NaHCO3 (25.0); glucose (11.0); and gassed continuously with 95% O2-5% CO2. […] Changes in tension were measured on a Grass polygraph via Grass FT-03 force transducers.
(§1) To study NK2-mediated contraction, the vascular endothelium was removed and beta-Ala^8-NKA (“BANK”) was used as agonist. […] The response to each concentration of ASMSP was expressed as a percentage of the total relaxation induced by papaverine. […] Apparent KB values for the compound were calculated using the standard equation: KB=[antagonist]/(dose ratio−1), where dose ratio was equal to antilog [(−log molar EC50 without antagonist)−(−log molar EC50 with antagonist)]. The resulting KB values are expressed as −log molar KB.

[2] = target: T2, NK2 receptor, human bronchus (Homo sapiens, UniProt P21452); experiment: NK2 receptor antagonism in human bronchus; conditions: read-out: -log molar KB (converted)
T2 construct: from tissue; host or cells: human bronchus
T2 sequence (P21452 1-398): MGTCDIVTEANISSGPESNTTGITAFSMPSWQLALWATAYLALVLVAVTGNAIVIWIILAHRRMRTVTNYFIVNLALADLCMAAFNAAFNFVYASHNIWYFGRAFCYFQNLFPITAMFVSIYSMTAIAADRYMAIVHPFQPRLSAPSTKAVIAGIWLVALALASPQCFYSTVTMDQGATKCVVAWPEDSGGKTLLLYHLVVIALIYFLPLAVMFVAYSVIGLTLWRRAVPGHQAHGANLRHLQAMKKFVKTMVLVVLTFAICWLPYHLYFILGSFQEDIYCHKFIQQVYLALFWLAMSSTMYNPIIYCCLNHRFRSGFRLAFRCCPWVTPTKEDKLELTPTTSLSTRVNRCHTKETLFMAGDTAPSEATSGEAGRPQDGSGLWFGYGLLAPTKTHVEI

NK1 receptor = experiment: NK1 receptor-mediated relaxation of rabbit pulmonary artery induced by ASMSP
Procedure: Male New Zealand white rabbits were administered a lethal injection of Nembutal, (60 mg/kg) into a cannulated ear vein. Heparin, 0.0025 mL/kg of a 1000 U/ml solution, was injected into the ear vein prior to Nembutal in order to decrease blood coagulation. The left and right branches of the pulmonary artery were obtained from each animal. The segments, with or without endothelium, were suspended as rings in water-jacketed tissue baths maintained at 37° C. containing physiological salt solution of the following composition (mM): NaCl (119.0); KCl (4.6); CaCl2 (1.8); MgCl2 (0.5); NaH2PO4 (1.0); NaHCO3 (25.0); glucose (11.0); and gassed continuously with 95% O2-5% CO2. Initial tension placed on each tissue was 2 gm, which was maintained throughout a 0.5 hour equilibration period. Changes in tension were measured on a Grass polygraph via Grass FT-03 force transducers.
as §1

human NK2 receptor = target: T3, human NK2 receptor (Homo sapiens, UniProt P21452); experiment: Neurokinin receptor binding assay, 3H-NKA binding to MEL cell membranes; conditions: tritiated NKA; read-out: Ki, concentration at which 50% inhibition of binding of NKA was achieved
T3 construct: expressed in transfected cells; host or cells: Mouse Erythroleukemia (MEL) cells, membrane preparation (MELM)
T3 sequence (P21452 1-398): T2 sequence (P21452 1-398)

NK1 receptors = target: T4, NK1 receptors (Homo sapiens, UniProt P25103); experiment: Inhibition of binding of a tritiated derivative of SP in a tissue preparation selective for NK1 receptors; conditions: read-out: concentration at which 50% inhibition of binding of SP was achieved
T4 construct: from tissue; host or cells: unnamed tissue preparation selective for NK1 receptors
T4 sequence (P25103 whole entry): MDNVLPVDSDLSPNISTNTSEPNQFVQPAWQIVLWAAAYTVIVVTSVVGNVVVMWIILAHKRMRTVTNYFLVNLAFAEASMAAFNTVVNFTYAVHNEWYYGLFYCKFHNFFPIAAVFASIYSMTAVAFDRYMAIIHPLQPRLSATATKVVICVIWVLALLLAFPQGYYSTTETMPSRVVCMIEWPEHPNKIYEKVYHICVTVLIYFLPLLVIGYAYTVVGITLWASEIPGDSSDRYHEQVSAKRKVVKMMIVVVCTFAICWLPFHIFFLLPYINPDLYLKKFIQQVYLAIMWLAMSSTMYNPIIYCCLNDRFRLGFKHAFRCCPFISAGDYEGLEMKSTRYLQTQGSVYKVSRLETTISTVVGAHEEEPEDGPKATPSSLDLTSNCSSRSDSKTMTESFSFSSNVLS
From the text: The specificity of inhibition by the Compound was shown by inhibiting the binding of tritiated NKA at the NK2 receptor compared to inhibition of binding of a tritiated derivative of SP in a tissue preparation selective for NK1 receptors.

BANK-induced dyspnea = BANK-induced dyspnea in conscious guinea pigs; format: in vivo, guinea pig; conditions: for ED50: Cavia porcellus
Procedure: Dyspnea (labored abdominal breathing) was induced in conscious guinea pigs by aerosol administration of BANK, as previously described (Kusner, et al. Euro. J. Pharmacol. 210:299-306,1992). All animals were pretreated with atropine, 10 mg/kg ip 45 minutes; indomethacin, 10 mg/kg ip 30 minutes; propranolol, 5 mg/kg ip 30 minutes; and thiorphan, 1 mg/ml aerosol for 5 minutes duration, starting 15 minutes prior to challenge in order to block muscarinic receptors, cyclooxygenase, beta-adrenergic receptors, and neutral endopeptidase (EC 3.4.24.11), respectively. Animals were pretreated with Compound or vehicle at appropriate times before challenge with aerosolized BANK for 780 seconds. BANK was administered to six animals simultaneously by being aerosolized with a DeVilbiss ultrasonic nebulizer into an air stream flowing into a Plexiglas chamber at a rate of 2 liter/min. The time required for dyspnea to occur was recorded for each animal. […] Vehicle pretreated control animals were included in each experiment. Results are reported in % protection values where: [formula]

[3] = system: BANK-induced bronchoconstriction; experiment: Pulmonary mechanics in anesthetized guinea pigs, BANK-induced bronchoconstriction; format: in vivo, guinea pig
[4] = system: BANK-induced bladder contraction; experiment: In vivo bladder contraction inhibition in rats (BANK-induced); parameters: species or system rat
[5] = Side-effects in laboratory test animals; format: in vivo; conditions: several multiples of the minimum effective dose

| Compound | adverse effects (primarily dry mouth), share of the patient population (overactive bladder) | Kb [1] [nM] | Kb [2] [nM] | antagonism of relaxation induced by ASMSP (NK1 receptor; endothelium intact, phenylephrine-contracted) | selectivity, KB against NK1 receptor-mediated response versus NK2 receptor-mediated response (NK1 receptor; rabbit pulmonary artery) | pKi (human NK2 receptor) | pIC50 (NK1 receptors) | protection half-life against BANK-induced dyspnea (BANK-induced dyspnea; 2 mg/kg dose, duration of action studies) [h] | ED50 (BANK-induced dyspnea; intravenously 30 min prior to challenge) | ED50 (BANK-induced dyspnea; oral administration 120 min before challenge) | Maximum efficacy (% protection) (BANK-induced dyspnea; intravenous, 0.3 μmol/kg) [%] | Maximum efficacy (% protection) (BANK-induced dyspnea; oral dose of 3.0 μmol/kg) [%] | rightward shift of the response curves for BANK ([3]; intravenously at 30 min before BANK) [fold] | rightward shift in the BANK-induced dose-response curve ([3]; oral 120 min before BANK) [fold] | maximum efficacy ([4]; […] (1.8 mg/kg) against intravenous BANK (3 nmol/kg)) | activity in bladder contraction test ([4]; intravenously and orally, 0.2 to 5 μmol/kg body weight) | Duration of action ([4]; oral 1.2 μmol/kg) | half-life of action ([4]; oral 1.2 μmol/kg) [h] | maximum efficacy ([4]; oral, 5 μmol/kg (2.5 mg/kg)) | untoward side-effects [5] |
| --- | --- | --- | --- | --- | --- | --- | --- | --- | --- | --- | --- | --- | --- | --- | --- | --- | --- | --- | --- | --- |
| CCN(CC)CC#CCOC(=O)C(O)(c1ccccc1)C1CCCCC1 (stereo not drawn) [oxybutinin] | approximately 78% | – | – | – | – | – | – | – | – | – | – | – | – | – | – | – | – | – | – | – |
| Cc1ccc(O)c([C@H](CCN(C(C)C)C(C)C)c2ccccc2)c1 [tolterodine] | ~39% | – | – | – | – | – | – | – | – | – | – | – | – | – | – | – | – | – | – | – |
| CN(C[C@@H](CCN1CCC(N2CCCNC2=O)CC1)c1ccc(Cl)c(Cl)c1)C(=O)c1ccccc1 [the Compound, (S)-N-[2-(3,4-dichlorophenyl)-4-[4-(2-oxoperhydropyrimidin-1-yl)piperidino]butyl]-N-methylbenzamide] | – | 0.891 | 2.4 | minor antagonism | 1,096 fold | 8.90 | 6.73 | 2.43 | 0.13 µmol/kg and 0.07 mg/kg | 0.75 µmol/kg and 0.39 mg/kg | 95 | 100 | ~196 | ~481 | approximately 100% | active and selective | about 6 hr | ~3.5 | about 80% | has not been found to show any indication of any untoward side-effects |
